Results reported in patent publication US20140010939A1, “Sweetness Enhancers, Sweetener Compositions, Methods of Making the Same and Consumables Containing the Same” (Nutrinova Nutrition Specialties & Food Ingredients GmbH, priority 2011, published 2014).

System: control cell line without sweet receptor (HEKα15#17)
Assay: Control cell line without sweet receptor in the same calcium cell based assay
Experimental: For measurement of human T1R2/T1R3 taste receptor dependent activity a control cell line without sweet receptor based on HEK 293 and a cell line expressing the sweet receptor hT1R2/hT1R3 based on HEK 293, respectively, are seeded into assay plates and labelled with the calcium sensitive fluorescence dye Fluo4-AM in a culture medium. The potential modulators, e.g. the test compound, are added to the control cell line and to the cell line expressing the sweet receptor hT1R2/hT1R3, respectively.
A stable cell line based on HEK293 was termed HEKα15#17 served as control for functional Ga-protein and a stable cell line HEKGα15#17R2R3b#8 C6 served as cell line expressing the sweet receptor hT1R2/hT1R3 based on HEKGα15#17.
The cells were cultured in DMEM/HG and 10% FCS Gold, 4 mM L-Glutamin, 1,3 mg/ml Geneticin (HEKGα15#17) or the same medium additionally containing 6 μg/ml Blasticidin (HEKGα15#17R2R3b#8 C6). The medium for the assay was DMEM/HG (high glucose, 4.5 g/l glucose, Life Technologies) and 10% FCS Gold, 4 mM L-Glutamin (HEKGα15#17) or DMEM/LG (low glucose, 1 g/l glucose; Life Technologies) and 10% FCS Gold (HEKGα15#17R2R3b#8C6), respectively.
In order to evaluate the sweet receptor modulating activity of the compound of formula (Ia), compound of formula (Ia) was added to the cultures in a concentration of 25 μM in a volume of 50 μl. Controls were KH-buffer (Krebs HEPES-buffer: 118 mM NaCl, 4.7 mM KCl, 1.2 mM MgSO4, 1.2 mM KH2PO4, 4.2 mM NaHCO3, 1.3 mM CaCl2, 10 mM Hepes, pH 7.4) either without or with sweetness enhancer.
Further controls for function of G-protein and receptor were isoproterenol (1 μM, Sigma Aldrich), ionomycin (1 μM, Calbiochem) and ATP (1 μM, Applichem).
For measurement of human T1R2/T1R3 taste receptor dependent activity, on day 1 of the test procedure the HEKα15#17 cells (control cell line without sweet receptor) and the HEKGα15#17R2R3b#8 C6 cells (cell line expressing the sweet receptor hT1R2/hT1R3), respectively, were transferred to low-glucose medium.
On day 2 the cells were seeded into assay plates at a density of 25,000 cells/well. Assay plates for fluorescence measurement (black clear bottom 96-cavity plates, Greiner Bio-One) were coated with poly-D-lysine. For direct comparison both cell lines (control cell line without sweet receptor and cell line expressing the sweet receptor hT1R2/hT1R3) were seeded into different cavities of the same assay plate. The plate was placed into the incubator for 48 hours at 37° C., 5% CO2, 100% relative humidity.
On day 4 the calcium assay was performed. For this assay, the cells were marked with Fluo4-AM in medium and KH-buffer. To each cavity 100 μl KH-buffer/250 μM sulfinpyrazone/4 μM Fluo4-AM were added gently to 100 μl medium (final concentration of Fluo4-AM=2 μM, stock solution of Fluo4-AM 1 mM in DMSO, excitation at 485 nm, emission at 520 nm, Fisher Scientific, 58239 Schwerte, Germany).
The plate was placed into the incubator for 1 hour. In the mean time the test substances (“ligands”) were prepared in a separate plate (5 times concentrated, 150 μl/cavity, and then automatically 50 μl/cavity were transferred into the screening cell plate by pipetting robot (FLEX-station, Molecular Devices, Sunnyvale, Calif.).
The culture medium was carefully removed and 200 μl KH-buffer/250 μM sulfinpyrazone per cavity was added slowly. Cells were left in the FLEX-station for 20 minutes for adaptation, followed by measurement at 37° C.

[1] = control compounds 1 μM, FIG. 1 second to fourth bars

SMILES	Fluo4-AM fluorescence increase (activation of control cell line) [1]	also measured
Nc1ncnc2c1ncn2[C@@H]1O[C@H](COP(=O)(O)OP(=O)(O)OP(=O)(O)O)[C@@H](O)[C@H]1O [ATP]	activate both the control and the cell line expressing the sweet receptor hT1R2/hT1R3	–
O=C(CO)[C@@H](O)[C@H](O)[C@H](O)CO [fructose]	–	Fluo4-AM fluorescence increase (activation of control cell line) (KH buffer/fructose (20 mM), FIG. 1 fifth bar): does neither activate the control cell line
C[C@H](CCC(=O)O)C[C@H](C)C[C@H](C)C(=O)/C=C(\O)[C@H](C)C[C@H](C)C/C=C/[C@@H](C)[C@@H](O)[C@@H](C)[C@@H](O)C[C@@H]1CC[C@@](C)([C@H]2CC[C@@](C)([C@@H](C)O)O2)O1 [ionomycin]	activate both the control and the cell line expressing the sweet receptor hT1R2/hT1R3	–
CC(C)NCC(O)c1ccc(O)c(O)c1 (centres unmarked) [isoproterenol]	activate both the control and the cell line expressing the sweet receptor hT1R2/hT1R3	–
O=S(=O)([O-])NC1CCCCC1.[Na+] [sodium cyclamate]	–	Fluo4-AM fluorescence increase (activation of control cell line) (sodium cyclamate 30 mM, control sweetener, FIG. 1 first bar): does not activate the control cell line
